Experimental data reported in article PMC10182601, “Biological evaluation of novel gemcitabine analog in patient-derived xenograft models of pancreatic cancer” (BMC Cancer, 2023).
Structures can show the parent of a compound that is named as a salt.

Columns and labels:
[1] = tested on: PCa PDX tumor from Black patients; assay: Tumor efficacy in PDX mice bearing tumors from Black PCa patients; assay type: in vivo; conditions: 30 mg/kg Gem equivalent i.v. twice weekly for 3 weeks
Text: (§1) The implantation of surgical tumor tissue into immuno-compromised mice was described previously. A viable portion of resected tissue 2 × 2 mm in size was briefly isolated immediately from surgically resected primary PCa specimens (from Blacks and White patients) with care to minimize critical ischemia time. The PCa tissues were then implanted subcutaneously into an 8-week-old mouse (The Jackson Laboratory, Bar Harbor, ME). The xenografts were allowed to grow to a maximum diameter of 1.5 cm before passage and in vitro culture.
(§2) Mice-bearing surgically implanted tumors obtained from Black and White patients with sizes of 70–100 mm^3 were randomized into groups as control, GemHCl, and 4NSG-SLN (n = 5/group). Baseline tumor volume was established, and dosing initiation began on day 1 with intravenous administration of 30 mg/kg Gem (twice weekly for 3 weeks) with an equivalent dose of GemHCl and 4NSG-SLN [42]. Once tumors became palpable, their volume was measured thrice per week, and the mice's weight was recorded twice weekly. Tumor volumes were measured using digital calipers and calculated using the following equation: V = (L*(W)^2)/2, where V is the volume (mm^3), W(width) is the smaller of two perpendicular tumor axes, and the L (length) is the larger of two vertical axes. Mean tumor volume growth curves were calculated for each treatment group.

[2] = tested on: PCa PDX tumor from White patients; assay: Tumor efficacy in PDX mice bearing tumors from White PCa patients; assay type: in vivo; conditions: 30 mg/kg Gem equivalent i.v. twice weekly for 3 weeks
Text: as §1, §2

PPCL-192 cells = assay: Cell cycle distribution (PI, flow cytometry), PPCL-192; assay type: cell-based, human; conditions: 24 h
Method: (§3) Cell cycle study was performed to determine the effect of 4NSG-SLN on the cell cycle; PPCL-192 and PPCL-46 cells (2 × 10^5 cells per well) were seeded in 6-well plates and cultured using DMEM medium supplemented with 10% FBS10 mM HEPES, 10% FBS, and 1% penicillin/streptomycin were seeded in 6-well plates and incubated at 37 °C. After the cells reached 75% confluence, they were exposed to different concentrations (5 μM,10 μM, and 20 µM) of GemHCl and 4NSG-SLN. After 24 h exposure, cells were harvested, washed with PBS, centrifuged at 300 × g for 5 min, resuspended the pellets in 100 μL of PBS, and passed through a 28 5/8 needle to disperse them into single cells. Fixation and permeation of cells were performed using cold 70% ethanol while vortexing. Cells were then stored at − 20 °C overnight. The cells were resuspended in 0.1 mg/mL RNase, stained with […] PI, and the phase distribution was examined using flow cytometry (FACScalibur-Becton Dickinson).

[3] = Pharmacokinetic study in mice (i.v. bolus); assay type: in vivo; conditions: single i.v. bolus, Gem equivalent (b110 prints 20 mg/kg)
Method: For pharmacokinetic (PK) studies, normal healthy mice were grouped into control, GemHCl, and 4NSG-SLN. […] After the injection, aliquots of blood samples were collected at predetermined time points (5, 10, 15, 30, 60, 120, 240, 360, 720, and 1440 min). Blood samples collected were treated with 2 mL of an extraction solvent (15% of isopropyl alcohol in ethyl acetate). The mixture was vortexed for 30 s and centrifuged at 3,000 rpm for 15 min, and the supernatant was collected and vaporized to dry overnight in a water bath. Residual solvent was removed by placing the dried samples in vacuum chamber.
Five hundred microliters (500 uL) of mobile phase solution was used to reconstitute the dried sample (mobile phase solution was made up of 5% acetonitrile in 10 mM dihydrogen phosphate buffer, pH adjusted to 3). The sample solution was centrifuged at 3,000 rpm for 15 min, supernatant collected and filtered, and samples analyzed for Gem using HPLC. The PK parameters were determined using PKSolver software.
To determine the concentration of Gem, supernatant from mouse plasma was spiked with aliquots of 0.5 μg/ml of Gem. The chromatographic analysis was performed according to the method described with minor modifications. The samples were collected using supernatants (10µL), aliquots of control (spiked), and mouse plasma. The chromatographic system consisted of an HPLC (Agilent Technologies, 1290 infinity) equipped with an auto-sampler, diode array detector (DAD), and pumps. Separation was performed using a reverse phase column (Zobrax Rapid Resolution High Definition (RRHD) Eclipse plus C18, 2.1 × 50 mm, 1.8 µm). A flow rate of 250 µL/min and injection volume of 10 μL at ambient temperature was maintained at 25 ± 1 °C while detection was performed at 268 nm. Before analysis, the reverse phase column was equilibrated with a mobile phase of 5% acetonitrile in 10 mM dihydrogen phosphate buffer, pH adjusted to 2.5 with trifluoroacetic acid (TFA). Isocratic elution was performed throughout the entire analysis, including internal standards. A calibration curve was prepared using Gem standard solutions with a concentration range of 0.063–2.0 μg/mL. A plot of the peak areas as a function of Gem concentration was plotted, and the linear equation of the calibration curve given as y = mx + c was determined, where y is the peak area, m is the slope, x is the concentration of Gem, and c is the y—intercept.

PPCL-46 cells = assay: Cell cycle distribution (PI, flow cytometry), PPCL-46; assay type: cell-based, human; conditions: 24 h
Method: as §3

## Nc1ccn([C@@H]2O[C@H](CO)[C@@H](O)C2(F)F)c(=O)n1 [GemHCl, Gemcitabine hydrochloride]
[1]; day 1, BT PDX mice
  Mean terminal tumor volume: 12.5 ± 6 mm^3
[1]; day 3, BT PDX mice
  Mean terminal tumor volume: 25.0 ± 12 mm^3
[1]; day 5, BT PDX mice
  Mean terminal tumor volume: 35.7 ± 18 mm^3
[1]; day 7, BT PDX mice
  Mean terminal tumor volume: 73.0 ± 21 mm^3
[1]; day 11, BT PDX mice
  Mean terminal tumor volume: 662. ± 198 mm^3
[1]; day 13, BT PDX mice
  Mean terminal tumor volume: 767. ± 194 mm^3
[1]; day 15, BT PDX mice
  Mean terminal tumor volume: 911. ± 152 mm^3
[1]; day 17, BT PDX mice
  Mean terminal tumor volume: 990. ± 151 mm^3
[1]; day 19, BT PDX mice
  Mean terminal tumor volume: 1129 ± 172 mm^3
[1]; day 21, BT PDX mice
  Mean terminal tumor volume: 1204 ± 184 mm^3
[1]; day 23, BT PDX mice
  Mean terminal tumor volume: 1456 ± 154 mm^3
[1]; day 25, BT PDX mice
  Mean terminal tumor volume: 1681 ± 172 mm^3
[2]; day 0, WT (patient tumor) PDX mice
  Mean terminal tumor volume: 0 mm^3
[2]; day 1, WT PDX mice
  Mean terminal tumor volume: 13.9 ± 2 mm^3
[2]; day 3, WT PDX mice
  Mean terminal tumor volume: 27.8 ± 4 mm^3
[2]; day 5, WT PDX mice
  Mean terminal tumor volume: 39.7 ± 5 mm^3
[2]; day 7, WT PDX mice
  Mean terminal tumor volume: 43.5 ± 16 mm^3
[2]; day 9, WT PDX mice
  Mean terminal tumor volume: 177.8 ± 60 mm^3
[2]; day 11, WT PDX mice
  Mean terminal tumor volume: 583.2 ± 227 mm^3
[2]; day 13, WT PDX mice
  Mean terminal tumor volume: 646.9 ± 240 mm^3
[2]; day 15, WT PDX mice
  Mean terminal tumor volume: 752.6 ± 241 mm^3
[2]; day 17, WT PDX mice
  Mean terminal tumor volume: 850.8 ± 205 mm^3
[2]; day 19, WT PDX mice
  Mean terminal tumor volume: 868.2 ± 294 mm^3
[2]; day 21, WT PDX mice
  Mean terminal tumor volume: 1053 ± 86 mm^3
[2]; day 23, WT PDX mice
  Mean terminal tumor volume: 1344.7 ± 171 mm^3
[2]; day 25, WT PDX mice
  Mean terminal tumor volume: 1748.2 ± 223 mm^3
PPCL-192 cells; PPCL-192, 5 μM
  %G1: 71.08%
  %G2: 11.05%
  %S: 17.87%
PPCL-192 cells; PPCL-192, 10 μM
  %G1: 74.75%
  %G2: 9.59%
  %S: 15.66%
PPCL-192 cells; PPCL-192, 20 μM
  %G1: 79.91%
  %G2: 8.23%
  %S: 11.86%
[3]; mouse, plasma, iv, read-out: Cl (clearance) (converted)
  clearance: 0.355 mL/min
[3]; mouse, plasma, iv, read-out: Vd (volume of distribution)
  Vd: 0.0217 ± 0.0019 L
[3]; mouse, plasma, iv, read-out: k10 (elimination rate constant) (converted)
  k el: 0.000281 s⁻¹
[3]; mouse, plasma, iv, read-out: t1/2 (half-life) (converted)
  half-life: 42 ± 0.6 min
[3]
  AUC(0-t): 28200 ± 4300 ng·h/mL
PPCL-46 cells; PPCL-46, 5 μM
  %G1: 72.75%
  %G2: 12.56%
  %S: 14.69%
PPCL-46 cells; PPCL-46, 10 μM
  %G1: 74.08%
  %G2: 10.39%
  %S: 15.53%
PPCL-46 cells; PPCL-46, 20 μM
  %G1: 76.35%
  %G2: 9.54%
  %S: 14.11%
